According to patent US20240150360A1 (THE REGENTS OF THE UNIVERSITY OF MICHIGAN, priority 2021, published 2024):
Like-named read-outs stand apart in the source and are kept apart here.

How the values were obtained:
CBP = target: T1, CBP (Homo sapiens, UniProt Q92793); test: CBP degradation in 22Rv1 cells (5 h); format: cell-based; settings: 22Rv1 cells, 5 h; for Dmax: 22Rv1, 5 h, read-out: CBP Degradation (22Rv1, 5 h) DCmax
T1 construct: endogenous in cells; host or cells: 22Rv1 (ATCC CRL-2505) human prostate cancer cells
T1 sequence (Q92793 whole entry): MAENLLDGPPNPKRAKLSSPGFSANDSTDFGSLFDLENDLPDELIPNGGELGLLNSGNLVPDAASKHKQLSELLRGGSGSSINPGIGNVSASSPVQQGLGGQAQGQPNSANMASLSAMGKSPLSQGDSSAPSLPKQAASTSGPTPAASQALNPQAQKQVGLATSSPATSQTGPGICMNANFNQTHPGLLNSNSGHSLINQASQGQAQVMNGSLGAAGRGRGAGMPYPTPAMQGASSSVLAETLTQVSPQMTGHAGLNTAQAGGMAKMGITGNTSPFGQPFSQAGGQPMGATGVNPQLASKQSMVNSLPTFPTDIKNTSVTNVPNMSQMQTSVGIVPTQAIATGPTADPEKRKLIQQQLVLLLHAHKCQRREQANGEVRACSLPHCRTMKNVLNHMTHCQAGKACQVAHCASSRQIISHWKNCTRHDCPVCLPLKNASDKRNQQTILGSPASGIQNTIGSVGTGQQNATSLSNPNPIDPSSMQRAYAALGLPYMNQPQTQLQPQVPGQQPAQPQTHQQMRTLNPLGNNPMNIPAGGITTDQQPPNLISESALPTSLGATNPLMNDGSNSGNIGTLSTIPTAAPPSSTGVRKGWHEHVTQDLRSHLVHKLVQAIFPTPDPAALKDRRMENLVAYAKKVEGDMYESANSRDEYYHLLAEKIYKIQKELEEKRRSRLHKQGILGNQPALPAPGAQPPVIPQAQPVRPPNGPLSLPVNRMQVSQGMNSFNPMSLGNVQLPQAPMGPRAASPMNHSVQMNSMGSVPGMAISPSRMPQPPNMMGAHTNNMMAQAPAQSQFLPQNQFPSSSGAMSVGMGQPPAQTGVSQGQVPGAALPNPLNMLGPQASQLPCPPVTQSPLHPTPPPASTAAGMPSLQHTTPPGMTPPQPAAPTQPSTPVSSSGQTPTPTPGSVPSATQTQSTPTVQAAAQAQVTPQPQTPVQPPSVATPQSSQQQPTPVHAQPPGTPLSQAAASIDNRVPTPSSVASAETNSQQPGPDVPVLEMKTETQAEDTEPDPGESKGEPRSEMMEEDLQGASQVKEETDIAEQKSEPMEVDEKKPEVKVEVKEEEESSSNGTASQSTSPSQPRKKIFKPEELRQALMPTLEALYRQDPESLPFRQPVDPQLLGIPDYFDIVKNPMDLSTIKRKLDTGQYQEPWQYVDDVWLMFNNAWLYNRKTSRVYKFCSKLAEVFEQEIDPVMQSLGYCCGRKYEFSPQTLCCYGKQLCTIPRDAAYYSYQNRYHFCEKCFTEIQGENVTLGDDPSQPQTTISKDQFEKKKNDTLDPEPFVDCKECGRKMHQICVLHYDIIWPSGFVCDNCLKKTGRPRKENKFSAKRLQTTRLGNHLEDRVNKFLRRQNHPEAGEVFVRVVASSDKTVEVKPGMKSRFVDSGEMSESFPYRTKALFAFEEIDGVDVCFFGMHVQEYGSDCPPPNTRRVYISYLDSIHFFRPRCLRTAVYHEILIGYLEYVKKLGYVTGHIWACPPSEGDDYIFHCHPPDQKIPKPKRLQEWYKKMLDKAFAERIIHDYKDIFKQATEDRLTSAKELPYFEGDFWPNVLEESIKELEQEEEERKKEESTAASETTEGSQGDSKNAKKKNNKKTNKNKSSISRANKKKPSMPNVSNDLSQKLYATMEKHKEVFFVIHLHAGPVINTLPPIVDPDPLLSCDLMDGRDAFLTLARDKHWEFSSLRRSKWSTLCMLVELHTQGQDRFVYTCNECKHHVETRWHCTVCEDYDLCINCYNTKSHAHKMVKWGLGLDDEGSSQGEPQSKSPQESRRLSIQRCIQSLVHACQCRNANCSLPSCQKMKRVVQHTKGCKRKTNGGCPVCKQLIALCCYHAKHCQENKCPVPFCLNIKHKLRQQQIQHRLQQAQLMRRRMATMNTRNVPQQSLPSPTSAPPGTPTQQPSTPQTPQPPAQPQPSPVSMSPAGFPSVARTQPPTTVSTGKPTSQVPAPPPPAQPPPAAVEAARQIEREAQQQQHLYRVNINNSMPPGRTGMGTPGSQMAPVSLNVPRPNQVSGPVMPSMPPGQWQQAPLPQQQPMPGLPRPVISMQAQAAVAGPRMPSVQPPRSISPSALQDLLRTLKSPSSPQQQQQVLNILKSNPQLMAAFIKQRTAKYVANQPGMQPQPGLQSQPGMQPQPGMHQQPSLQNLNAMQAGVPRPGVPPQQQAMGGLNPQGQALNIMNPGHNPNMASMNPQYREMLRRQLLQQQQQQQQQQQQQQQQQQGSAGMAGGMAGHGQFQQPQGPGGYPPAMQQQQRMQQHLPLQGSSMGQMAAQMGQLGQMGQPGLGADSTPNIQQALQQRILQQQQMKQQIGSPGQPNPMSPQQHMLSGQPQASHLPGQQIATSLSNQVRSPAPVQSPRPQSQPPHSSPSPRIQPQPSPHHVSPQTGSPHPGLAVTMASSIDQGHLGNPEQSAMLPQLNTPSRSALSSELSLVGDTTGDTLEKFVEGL
From the text: Biological Assays. […] Cells with 3-8 passages after purchase were used in experiments.

22Rv1 cells = test: Cell growth inhibition assay (CellTiter-Glo) in 22Rv1; format: cell-based, human; settings: 22Rv1 cells, 96 h incubation, read-out: Cell Growth Inhibition (IC50) 22Rv1
Procedure: Biological Assays. CBP/p300 degradation activity and cell growth inhibition were evaluated in the human prostate cancer cell line 22Rv1 (ATCC© CRL-2505™) purchased from the American Type Culture Collection (ATCC), Manassas, VA, and maintained and cultured in Dulbecco's Modified Eagle's medium (DMEM) containing 10% fetal bovine serum, 1 unit/ml of penicillin and 1 μg/ml of streptomycin. Cells with 3-8 passages after purchase were used in experiments.
Cell Growth Inhibition Assay Protocol. 22RV1 cells were seeded at a concentration of 4000 cells/well in 100 μl culture medium and 2 μl of test compound (final concentration start from 10 μM and 3 times dilution) into 96 well microplates (Corning 3903). The cell cultures were incubated for 96 h at +37° C. and 5% CO2. The plate and its contents were equilibrated to room temperature for approximately 30 minutes. 100 μl of CellTiter-Glo® 2.0 Reagent equal to the volume of cell culture medium present was added in each well. The contents were mixed for 2 minutes on an orbital shaker. The plate was allowed to incubate at room temperature for 10 minutes. The luminescence was recorded. The data was analyzed by Prism GraphPad 8.

HL60 = test: Cell growth inhibition in HL60; format: cell-based; settings: Homo sapiens, HL-60, HL60 cells; read-out: Cell Growth Inhibition (IC50) HL60

Row | Structure (SMILES) | Dmax (CBP) [%] | DC50 (CBP) [nM] | IC50 (22Rv1 cells; Homo sapiens, 22Rv1, 96 h) [nM] | IC50 (HL60) [nM] | IC50 (22Rv1 cells) [nM]
1 | CC(=O)N1CCc2c(c(N3CCCc4cc(-c5cnn(CCCCN6Cc7cc8c(cc7C6)C(=O)N(C6CCC(=O)NC6=O)C8=O)c5)c(C(F)F)cc43)nn2C2CCOCC2)C1 (stereo not shown) [CP-068, 6-(4-(4-(1-(5-acetyl-1-(tetrahydro-2H-pyran-4-yl)-4,5,6,7-tetrahydro-1H-pyrazolo[4,3-c]pyridin-3-yl)-7-(difluoromethyl)-1,2,3,4-tetrahydroquinolin-6-yl)-1H-pyrazol-1-yl)butyl)-2-(2,6-dioxopiperidin-3-yl)-6,7-dihydropyrrolo[3,4-f]isoindole-1,3(2H,5H)-dione] | > 90 | < 10 | < 100 | < 100 | 
2 | CC(=O)N1CCc2c(c(N3CCCc4cc(-c5cnn(C)c5)c(C(F)F)cc43)nn2C2CCN(CC(=O)N3CCc4cc5c(cc4C3)C(=O)N(C3CCC(=O)NC3=O)C5=O)CC2)C1 (stereo not shown) [CP-002, 6-(2-(4-(5-acetyl-3-(7-(difluoromethyl)-6-(1-methyl-1H-pyrazol-4-yl)-3,4-dihydroquinolin-1(2H)-yl)-4,5,6,7-tetrahydro-1H-pyrazolo[4,3-c]pyridin-1-yl)piperidin-1-yl)acetyl)-2-(2,6-dioxopiperidin-3-yl)-5,6,7,8-tetrahydro-1H-pyrrolo[3,4-g]isoquinoline-1,3(2H)-dione] | > 90 | < 10 | < 10000 | < 1000 | 
3 | CC(=O)N1CCc2c(c(N3CCCc4cc(-c5cnn(C)c5)c(C(F)F)cc43)nn2C2CCN(C(=O)CCCN3Cc4cc5c(cc4C3)C(=O)N(C3CCC(=O)NC3=O)C5=O)CC2)C1 (stereo not shown) [CP-008, 6-(4-(4-(5-acetyl-3-(7-(difluoromethyl)-6-(1-methyl-1H-pyrazol-4-yl)-3,4-dihydroquinolin-1(2H)-yl)-4,5,6,7-tetrahydro-1H-pyrazolo[4,3-c]pyridin-1-yl)piperidin-1-yl)-4-oxobutyl)-2-(2,6-dioxopiperidin-3-yl)-6,7-dihydropyrrolo[3,4-f]isoindole-1,3(2H,5H)-dione] | > 70 | < 10 | < 100 | < 100 | 
4 | CC(=O)N1CCc2c(c(N3CCCc4cc(-c5cnn(C)c5)c(C(F)F)cc43)nn2C2CCC(CC(=O)N3Cc4cc5c(cc4C3)C(=O)N(C3CCC(=O)NC3=O)C5=O)CC2)C1 (stereo not shown) [CP-027, 6-(2-(4-(5-acetyl-3-(7-(difluoromethyl)-6-(1-methyl-1H-pyrazol-4-yl)-3,4-dihydroquinolin-1(2H)-yl)-4,5,6,7-tetrahydro-1H-pyrazolo[4,3-c]pyridin-1-yl)cyclohexyl)acetyl)-2-(2,6-dioxopiperidin-3-yl)-6,7-dihydropyrrolo[3,4-f]isoindole-1,3(2H,5H)-dione] | < 50 | > 1000 | < 10000 | < 1000 | 
5 | CC(=O)N1CCc2c(c(N3CCCc4cc(-c5cnn(CCCN6CCc7cc8c(cc7C6)C(=O)N(C6CCC(=O)NC6=O)C8=O)c5)c(C(F)F)cc43)nn2C2CCOCC2)C1 (stereo not shown) [CP-074, 6-(3-(4-(1-(5-acetyl-1-(tetrahydro-2H-pyran-4-yl)-4,5,6,7-tetrahydro-1H-pyrazolo[4,3-c]pyridin-3-yl)-7-(difluoromethyl)-1,2,3,4-tetrahydroquinolin-6-y)-1H-pyrazol-1-yl)propyl)-2-(2,6-dioxopiperidin-3-yl)-5,6,7,8-tetrahydro-1H-pyrrolo[3,4-g]isoquinoline-1,3(2H)-dione] | < 50 | > 1000 | < 10000 | < 100 | 
6 | CC(=O)N1CCc2c(c(N3CCCc4ccc(C(F)F)cc43)nn2C2CCN(C(=O)CN3CCc4cc5c(cc4C3)C(=O)N(C3CCC(=O)NC3=O)C5=O)CC2)C1 (stereo not shown) [CP-009, 6-(2-(4-(5-acetyl-3-(7-(difluoromethyl)-3,4-dihydroquinolin-1(2H)-yl)-4,5,6,7-tetrahydro-1H-pyrazolo[4,3-c]pyridin-1-yl)piperidin-1-yl)-2-oxoethyl)-2-(2,6-dioxopiperidin-3-yl)-5,6,7,8-tetrahydro-1H-pyrrolo[3,4-g]isoquinoline-1,3(2H)-dione] | > 90 | < 10 | < 1000 | < 100 | 
7 | CC(=O)N1CCc2c(c(N3CCCc4cc(-c5cnn(C)c5)c(C(F)F)cc43)nn2C2CCN(CC(=O)N3Cc4cc5c(cc4C3)C(=O)N(C3CCC(=O)NC3=O)C5=O)CC2)C1 (stereo not shown) [CP-006, 6-(2-(4-(5-acetyl-3-(7-(difluoromethyl)-6-(1-methyl-1H-pyrazol-4-yl)-3,4-dihydroquinolin-1(2H)-yl)-4,5,6,7-tetrahydro-1H-pyrazolo[4,3-c]pyridin-1-yl)piperidin-1-yl)acetyl)-2-(2,6-dioxopiperidin-3-yl)-6,7-dihydropyrrolo[3,4-f]isoindole-1,3(2H,5H)-dione] | > 70 | < 10 | < 10000 | < 1000 | 
8 | CC(=O)N1CCc2c(c(N3CCCc4cc(-c5cnn(C)c5)c(C(F)F)cc43)nn2C[C@H]2CC[C@H](C(=O)N3CCc4cc5c(cc4C3)C(=O)N(C3CCC(=O)NC3=O)C5=O)CC2)C1 (stereo partly drawn) [CP-030, trans-6-(4-((5-acetyl-3-(7-(difluoromethyl)-6-(1-methyl-1H-pyrazol-4-yl)-3,4-dihydroquinolin-1(2H)-yl)-4,5,6,7-tetrahydro-1H-pyrazolo[4,3-c]pyridin-1-yl)methyl)cyclohexane-1-carbonyl)-2-(2,6-dioxopiperidin-3-yl)-5,6,7,8-tetrahydro-1H-pyrrolo[3,4-g]isoquinoline-1,3(2H)-dione] | < 50 | > 1000 | < 10000 | < 1000 | 

Second part, the compound after the results:

Row | Dmax (CBP) [%] | DC50 (CBP) [nM] | IC50 (22Rv1 cells; Homo sapiens, 22Rv1, 96 h) [nM] | IC50 (HL60) [nM] | IC50 (22Rv1 cells) [nM] | Structure (SMILES)
9 | > 90 | < 10 | < 100 | < 100 |  | CC(=O)N1CCc2c(c(N3CCCc4cc(-c5cnn(C6CCN(C(=O)CN7Cc8cc9c(cc8C7)C(=O)N(C7CCC(=O)NC7=O)C9=O)CC6)c5)c(C(F)F)cc43)nn2C2CCOCC2)C1 (stereo not shown) [CP-072, 6-(2-(4-(4-(1-(5-acetyl-1-(tetrahydro-2H-pyran-4-yl)-4,5,6,7-tetrahydro-1H-pyrazolo[4,3-c]pyridin-3-yl)-7-(difluoromethyl)-1,2,3,4-tetrahydroquinolin-6-yl)-1H-pyrazol-1-yl)piperidin-1-yl)-2-oxoethyl)-2-(2,6-dioxopiperidin-3-yl)-6,7-dihydropyrrolo[3,4-f]isoindole-1,3(2H,5H)-dione]
10 | > 50 | < 100 | < 10000 | < 1000 |  | CC(=O)N1CCc2c(c(N3CCCc4cc(-c5cnn(C)c5)c(C(F)F)cc43)nn2C2CCN(C(=O)CCN3CCc4cc5c(cc4C3)C(=O)N(C3CCC(=O)NC3=O)C5=O)CC2)C1 (stereo not shown) [CP-003, 6-(3-(4-(5-acetyl-3-(7-(difluoromethyl)-6-(1-methyl-1H-pyrazol-4-yl)-3,4-dihydroquinolin-1(2H)-yl)-4,5,6,7-tetrahydro-1H-pyrazolo[4,3-c]pyridin-1-yl)piperidin-1-yl)-3-oxopropyl)-2-(2,6-dioxopiperidin-3-yl)-5,6,7,8-tetrahydro-1H-pyrrolo[3,4-g]isoquinoline-1,3(2H)-dione]
11 | > 90 | < 10 | < 100 | < 100 |  | CC(=O)N1CCc2c(c(N3CCCc4cc(-c5cnn(CCCCCN6Cc7cc8c(cc7C6)C(=O)N(C6CCC(=O)NC6=O)C8=O)c5)c(C(F)F)cc43)nn2C2CCOCC2)C1 (stereo not shown) [CP-067, 6-(5-(4-(1-(5-acetyl-1-(tetrahydro-2H-pyran-4-yl)-4,5,6,7-tetrahydro-1H-pyrazolo[4,3-c]pyridin-3-yl)-7-(difluoromethyl)-1,2,3,4-tetrahydroquinolin-6-yl)-1H-pyrazol-1-yl)pentyl)-2-(2,6-dioxopiperidin-3-yl)-6,7-dihydropyrrolo[3,4-f]isoindole-1,3(2H,5H)-dione]
12 | > 90 | < 10 |  | < 100 | < 100 | CC(=O)N1CCc2c(c(N3CCCc4cc(-c5cnn(C)c5)c(C(F)F)cc43)nn2C2CCC(C(=O)N3Cc4cc5c(cc4C3)C(=O)N(C3CCC(=O)NC3=O)C5=O)CC2)C1 (stereo not shown) [CP-033, 6-(4-(5-acetyl-3-(7-(difluoromethyl)-6-(1-methyl-1H-pyrazol-4-yl)-3,4-dihydroquinolin-1(2H)-yl)-4,5,6,7-tetrahydro-1H-pyrazolo[4,3-c]pyridin-1-yl)cyclohexane-1-carbonyl)-2-(2,6-dioxopiperidin-3-yl)-6,7-dihydropyrrolo[3,4-f]isoindole-1,3(2H,5H)-dione]
13 | > 70 | < 100 | < 1000 | < 1000 |  | CC(=O)N1CCc2c(c(N3CCCc4cc(-c5cnn(C)c5)c(C(F)F)cc43)nn2C2CCN(C(=O)CCN3Cc4cc5c(cc4C3)C(=O)N(C3CCC(=O)NC3=O)C5=O)CC2)C1 (stereo not shown) [CP-007, 6-(3-(4-(5-acetyl-3-(7-(difluoromethyl)-6-(1-methyl-1H-pyrazol-4-yl)-3,4-dihydroquinolin-1(2H)-yl)-4,5,6,7-tetrahydro-1H-pyrazolo[4,3-c]pyridin-1-yl)piperidin-1-yl)-3-oxopropyl)-2-(2,6-dioxopiperidin-3-yl)-6,7-dihydropyrrolo[3,4-f]isoindole-1,3(2H,5H)-dione]
